Test results taken from US11554182B2, “Macrocyclic complexes of alpha-emitting radionuclides and their use in targeted radiotherapy of cancer” (CORNELL UNIVERSITY, priority 2017, dated 2023).

Experiment: In vivo biodistribution of ^225Ac complexes after intravenous injection
Design: species or system C57BL/6 mice
Procedure: In Vivo Biodistribution of ^225Ac Complexes of Macropa and DOTA. All experiments were approved by the Institutional Animal Care Committee (IACC) of the University of British Columbia and were performed in accordance with the Canadian Council on Animal Care Guidelines. A total of 9 female C57BL/6 mice (6-8 weeks old, 20-25 g) were used for the biodistribution study of each radiometal complex, n=3 for each time point.
Macropa (100 μL of a 1 mg/mL solution in NH4OAc) was diluted with 387 μL of NH4OAc (1 M, pH 7), and an aliquot (203 μL) of ^225Ac(NO3)3 (˜157 kBq) was then added; the pH of this solution was adjusted to 6.5-7 by the addition of 1 M NaOH (210 μL, trace metal grade). After 5 min at ambient temperature, the reaction solution was analyzed by TLC (0.4 M pH 4 sodium citrate as the eluent), which confirmed >95% radiochemical yield. The reaction was allowed to proceed overnight, and the radiochemical yield was again confirmed to be >95% the following morning. At this time, mice were anesthetized by 2% isoflurane, and approximately 100 μL (10-15 kBq) of the [^225Ac(macropa)]^+ complex were injected into the tail vein of each mouse. After injection, mice were allowed to recover and roam freely in their cages, and were euthanized by CO2 inhalation at 15 min, 1 h, or 5 h (n=3 at each time point) post-injection. Blood was collected by cardiac puncture and placed into an appropriate test tube for scintillation counting. Tissues collected included heart, liver, kidneys, lungs, small intestine, large intestine, brain, bladder, spleen, stomach, pancreas, bone, thyroid, tail, urine, and feces. Tissues were weighed and then counted with a calibrated gamma counter (Packard, Cobra II model 5002) using three energy windows: 60-120 keV (window A), 180-260 keV (window B), and 400-480 keV (window C). Counting was performed both immediately after sacrifice and after 7 days; counts were decay corrected from the time of injection and then converted to the percentage of injected dose (% ID) per gram of tissue (% ID/g). No differences were noted between the data; therefore, the biodistributions are reported using the data acquired immediately using window A.
The biodistribution studies of [^225Ac(DOTA)]^− and ^225Ac(NO3)3 were carried out as described above for [^225Ac(macropa)]^+, with the following modifications. [^225Ac(DOTA)]^− was prepared by adding ^225Ac(NO3)3 (338 μL, 1.1 MBq) to a solution of DOTA (100 μg, 20 mg/mL in H2O) in NH4OAc (467 μL, 0.15 M, pH 7). The pH of the solution was adjusted to 7 using NH4OAc (150 μL, 1 M, pH 7) and the solution was heated at 85° C. for 45 min. RCY>99% was confirmed by TLC as described above. [^225Ac(DOTA)]^− was diluted with saline to a final concentration of 0.05 MBq/100 μL, and 100 μL were injected into each mouse. ^225Ac(NO3)3 (˜58 μL, 0.4 MBq) was diluted and injected in the same manner as [^225Ac(DOTA)]^−. One mouse that was to be euthanized at the 5 h time point in the [^225Ac(DOTA)]^− study died shortly after injection. In the same manner, one mouse that was to be euthanized at the 1 h time point in the ^225Ac(NO3)3 study died.
The in vivo stability [^225Ac(macropa)]^+ was examined by comparing its biodistribution to those of ^225Ac(NO3)3 and [^225Ac(DOTA)]^−. C57BL/6 mice were injected via tail vein with 10-50 kBq of each radiometal complex and were sacrificed after 15 min, 1 h, or 5 h. The amount of ^225Ac retained in each organ was quantified by gamma counting and reported as the percent of injected dose per gram of tissue (% ID/g). The results of these studies are compiled in Tables 1-3. Inadequate stability of an ^225Ac complex leading to the loss of radioisotope in vivo is manifested by the accumulation of ^225Ac in the liver, spleen, and bone of mice.^[11,12,32] […] The biodistribution profile of [^225Ac(macropa)]^+ (FIG. 3B) differs markedly from that of ^225Ac(NO3)3. […]

[1] = 15 min after i.v. injection, energy window A (60-120 keV)
[2] = 15 min after i.v. injection, energy window B (180-260 keV)
[3] = 15 min after i.v. injection, energy window C (400-480 keV)
[4] = 1 h after i.v. injection, energy window A (60-120 keV)
[5] = 1 h after i.v. injection, energy window B (180-260 keV)
[6] = 1 h after i.v. injection, energy window C (400-480 keV)
[7] = 5 h after i.v. injection, energy window A (60-120 keV)
[8] = 5 h after i.v. injection, energy window B (180-260 keV)

SMILES: O=C([O-])CN1CCN(CC(=O)[O-])CCN(CC(=O)[O-])CCN(CC(=O)[O-])CC1.[225Ac+3] [[^225Ac(DOTA)]^−]
- % ID/g in bladder [1]: 48.2703 % ID/g
- % ID/g in blood [1]: 5.2881 % ID/g
- % ID/g in bone (femur + joint) [1]: 2.6298 % ID/g
- % ID/g in brain [1]: 0.2655 % ID/g
- % ID/g in feces [1]: 6.2730 % ID/g
- % ID/g in heart [1]: 2.3335 % ID/g
- % ID/g in kidneys [1]: 27.6566 % ID/g
- % ID/g in large intestines [1]: 2.3348 % ID/g
- % ID/g in liver [1]: 2.2520 % ID/g
- % ID/g in lungs [1]: 5.7556 % ID/g
- % ID/g in pancreas [1]: 1.5090 % ID/g
- % ID/g in small intestines [1]: 2.6370 % ID/g
- % ID/g in spleen [1]: 2.5905 % ID/g
- % ID/g in stomach [1]: 2.7440 % ID/g
- % ID/g in tail [1]: 8.8606 % ID/g
- % ID/g in thyroids [1]: −5.7725 % ID/g
- % ID/g in urine [1]: 1467.9186 % ID/g
- % ID/g in bladder [2]: 54.4696 % ID/g
- % ID/g in blood [2]: 5.6357 % ID/g
- % ID/g in bone (femur + joint) [2]: 3.0357 % ID/g
- % ID/g in brain [2]: 0.2735 % ID/g
- % ID/g in feces [2]: 1.0222 % ID/g
- % ID/g in heart [2]: 2.7276 % ID/g
- % ID/g in kidneys [2]: 28.0858 % ID/g
- % ID/g in large intestines [2]: 2.5365 % ID/g
- % ID/g in liver [2]: 2.1817 % ID/g
- % ID/g in lungs [2]: 6.0147 % ID/g
- % ID/g in pancreas [2]: 1.4929 % ID/g
- % ID/g in small intestines [2]: 2.5009 % ID/g
- % ID/g in spleen [2]: 2.9076 % ID/g
- % ID/g in stomach [2]: 2.7311 % ID/g
- % ID/g in tail [2]: 9.4746 % ID/g
- % ID/g in thyroids [2]: 1.6601 % ID/g
- % ID/g in urine [2]: 1635.4394 % ID/g
- % ID/g in bladder [3]: 76.0987 % ID/g
- % ID/g in blood [3]: 7.2941 % ID/g
- % ID/g in bone (femur + joint) [3]: 4.4224 % ID/g
- % ID/g in brain [3]: 0.1588 % ID/g
- % ID/g in feces [3]: 1.5693 % ID/g
- % ID/g in heart [3]: 2.5579 % ID/g
- % ID/g in kidneys [3]: 40.4489 % ID/g
- % ID/g in large intestines [3]: 3.8419 % ID/g
- % ID/g in liver [3]: 2.9046 % ID/g
- % ID/g in lungs [3]: 7.3872 % ID/g
- % ID/g in pancreas [3]: 1.0290 % ID/g
- % ID/g in small intestines [3]: 3.8916 % ID/g
- % ID/g in spleen [3]: 1.5598 % ID/g
- % ID/g in stomach [3]: 3.2425 % ID/g
- % ID/g in tail [3]: 13.4731 % ID/g
- % ID/g in thyroids [3]: −109.5394 % ID/g
- % ID/g in urine [3]: 2691.0615 % ID/g
- % ID/g in bladder [4]: 4.7351 % ID/g
- % ID/g in blood [4]: 0.1144 % ID/g
- % ID/g in bone (femur + joint) [4]: 0.4487 % ID/g
- % ID/g in brain [4]: 0.0224 % ID/g
- % ID/g in feces [4]: 0.2035 % ID/g
- % ID/g in heart [4]: 0.1012 % ID/g
- % ID/g in kidneys [4]: 1.4020 % ID/g
- % ID/g in large intestines [4]: 0.1229 % ID/g
- % ID/g in liver [4]: 0.2715 % ID/g
- % ID/g in lungs [4]: 0.1555 % ID/g
- % ID/g in pancreas [4]: 0.0743 % ID/g
- % ID/g in small intestines [4]: 1.7207 % ID/g
- % ID/g in spleen [4]: 0.0938 % ID/g
- % ID/g in stomach [4]: 0.1367 % ID/g
- % ID/g in tail [4]: 0.8091 % ID/g
- % ID/g in thyroids [4]: 2.3564 % ID/g
- % ID/g in urine [4]: 158.6102 % ID/g
- % ID/g in bladder [5]: 4.7141 % ID/g
- % ID/g in blood [5]: 0.1127 % ID/g
- % ID/g in bone (femur + joint) [5]: 0.4126 % ID/g
- % ID/g in brain [5]: 0.0248 % ID/g
- % ID/g in feces [5]: 0.2349 % ID/g
- % ID/g in heart [5]: 0.1378 % ID/g
- % ID/g in kidneys [5]: 1.2560 % ID/g
- % ID/g in large intestines [5]: 0.0813 % ID/g
- % ID/g in liver [5]: 0.2672 % ID/g
- % ID/g in lungs [5]: 0.1946 % ID/g
- % ID/g in pancreas [5]: 0.0746 % ID/g
- % ID/g in small intestines [5]: 1.8809 % ID/g
- % ID/g in spleen [5]: 0.0825 % ID/g
- % ID/g in stomach [5]: 0.1379 % ID/g
- % ID/g in tail [5]: 0.8973 % ID/g
- % ID/g in thyroids [5]: 2.6514 % ID/g
- % ID/g in urine [5]: 159.1628 % ID/g
- % ID/g in bladder [6]: 6.9149 % ID/g
- % ID/g in blood [6]: 0.1102 % ID/g
- % ID/g in bone (femur + joint) [6]: 0.5654 % ID/g
- % ID/g in brain [6]: 0.0380 % ID/g
- % ID/g in feces [6]: 0.4091 % ID/g
- % ID/g in heart [6]: 0.2857 % ID/g
- % ID/g in kidneys [6]: 1.4787 % ID/g
- % ID/g in large intestines [6]: 0.1381 % ID/g
- % ID/g in liver [6]: 0.2841 % ID/g
- % ID/g in lungs [6]: 0.2551 % ID/g
- % ID/g in pancreas [6]: 0.1730 % ID/g
- % ID/g in small intestines [6]: 2.0201 % ID/g
- % ID/g in spleen [6]: 0.2228 % ID/g
- % ID/g in stomach [6]: 0.1720 % ID/g
- % ID/g in tail [6]: 1.0280 % ID/g
- % ID/g in thyroids [6]: 3.5247 % ID/g
- % ID/g in urine [6]: 177.6788 % ID/g
- % ID/g in bladder [7]: 0.3551 % ID/g
- % ID/g in blood [7]: 0.0140 % ID/g
- % ID/g in bone (femur + joint) [7]: 0.2063 % ID/g
- % ID/g in brain [7]: 0.0213 % ID/g
- % ID/g in feces [7]: 5.5318 % ID/g
- % ID/g in heart [7]: 0.0664 % ID/g
- % ID/g in kidneys [7]: 0.6172 % ID/g
- % ID/g in large intestines [7]: 0.2026 % ID/g
- % ID/g in liver [7]: 0.1010 % ID/g
- % ID/g in lungs [7]: 0.0390 % ID/g
- % ID/g in pancreas [7]: 0.0677 % ID/g
- % ID/g in small intestines [7]: 0.0967 % ID/g
- % ID/g in spleen [7]: 0.1380 % ID/g
- % ID/g in stomach [7]: 0.0852 % ID/g
- % ID/g in tail [7]: 0.3057 % ID/g
- % ID/g in thyroids [7]: 3.6425 % ID/g
- % ID/g in urine [7]: 1.1612 % ID/g
- % ID/g in bladder [8]: 0.7521 % ID/g
- % ID/g in blood [8]: 0.0292 % ID/g
- % ID/g in bone (femur + joint) [8]: 0.1478 % ID/g
- % ID/g in brain [8]: 0.0513 % ID/g
- % ID/g in feces [8]: 3.3534 % ID/g
- % ID/g in heart [8]: 0.0879 % ID/g
- % ID/g in kidneys [8]: 0.6718 % ID/g
- % ID/g in large intestines [8]: 0.2527 % ID/g
- % ID/g in liver [8]: 0.2712 % ID/g
- % ID/g in lungs [8]: 0.1289 % ID/g
- % ID/g in pancreas [8]: 0.1266 % ID/g
- % ID/g in small intestines [8]: 0.2065 % ID/g
- % ID/g in spleen [8]: 0.0834 % ID/g
- % ID/g in stomach [8]: 0.1789 % ID/g
- % ID/g in tail [8]: 0.1634 % ID/g
- % ID/g in thyroids [8]: 16.2357 % ID/g
- % ID/g in urine [8]: 3.6967 % ID/g
